# Legend:
# [1] = target: Acetylcholinesterase (AChE) (Electrophorus electricus, UniProt O42275); assay: Ellman's assay, purified enzyme from electric eel; format: biochemical
# [2] = target: Butyrylcholinesterase (BuChE) (Equus caballus, UniProt P81908); assay: Ellman's assay, purified enzyme from equine serum; format: biochemical
# Sequence of Butyrylcholinesterase (BuChE) (P81908 whole entry): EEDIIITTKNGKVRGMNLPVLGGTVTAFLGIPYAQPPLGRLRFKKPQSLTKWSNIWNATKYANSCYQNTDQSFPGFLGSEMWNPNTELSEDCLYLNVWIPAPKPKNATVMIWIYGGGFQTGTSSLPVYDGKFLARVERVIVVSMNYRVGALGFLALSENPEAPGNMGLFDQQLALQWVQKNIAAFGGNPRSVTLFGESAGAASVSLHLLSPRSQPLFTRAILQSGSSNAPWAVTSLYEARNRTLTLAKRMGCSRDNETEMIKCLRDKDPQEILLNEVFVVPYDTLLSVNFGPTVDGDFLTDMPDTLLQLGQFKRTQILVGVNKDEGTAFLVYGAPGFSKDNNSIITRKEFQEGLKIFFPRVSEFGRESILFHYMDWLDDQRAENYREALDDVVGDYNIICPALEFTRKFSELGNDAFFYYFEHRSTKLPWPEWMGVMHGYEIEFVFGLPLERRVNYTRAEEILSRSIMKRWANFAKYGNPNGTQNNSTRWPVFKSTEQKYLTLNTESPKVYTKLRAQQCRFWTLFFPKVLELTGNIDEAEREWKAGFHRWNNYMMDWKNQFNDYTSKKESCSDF
# Sequence of Acetylcholinesterase (AChE) (O42275 24-633): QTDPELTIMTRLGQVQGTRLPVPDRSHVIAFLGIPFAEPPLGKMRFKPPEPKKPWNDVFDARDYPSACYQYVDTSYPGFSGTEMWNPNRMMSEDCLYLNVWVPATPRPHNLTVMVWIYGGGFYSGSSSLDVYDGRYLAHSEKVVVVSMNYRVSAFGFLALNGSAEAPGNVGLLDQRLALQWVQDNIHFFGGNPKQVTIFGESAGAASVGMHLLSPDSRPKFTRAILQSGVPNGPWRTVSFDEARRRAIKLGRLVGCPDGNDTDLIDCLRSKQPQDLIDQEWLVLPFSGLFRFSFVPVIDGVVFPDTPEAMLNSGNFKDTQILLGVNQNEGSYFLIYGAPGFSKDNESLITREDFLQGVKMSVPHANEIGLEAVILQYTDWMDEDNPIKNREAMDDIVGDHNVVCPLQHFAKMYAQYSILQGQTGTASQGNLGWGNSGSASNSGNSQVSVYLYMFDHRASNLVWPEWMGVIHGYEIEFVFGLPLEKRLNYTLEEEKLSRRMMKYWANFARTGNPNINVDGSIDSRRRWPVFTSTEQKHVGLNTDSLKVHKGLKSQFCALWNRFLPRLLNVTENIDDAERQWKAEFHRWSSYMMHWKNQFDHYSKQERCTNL
structure (smiles),measurement,setting,value
"COc1cc2ccc(=O)oc2cc1O [scopoletin, 6-methoxy-7-hydroxycoumarin]",IC50,[1],5.34 µM
same,IC50,[2],9.11 µM

# Reference: publication PMC7338734 (Neuroscience Insights, 2020)
